From PubChem BioAssay AID2060618 (Molecular Pharmacology Branch, DTP, NCI, 2025)
Where “and” joins values, the source holds several entries; their conditions need not be identical. Equal entries are not always repeated.

Test system: 454973-116-R2-J3-PDC spheroids, percent test/control viability
Assay: Anticancer human tumor 454973-116-R2-J3-PDC patient-derived pancreatic carcinoma cell line growth inhibition [CLK]
Details: spheroids with HUVEC and MSC; for viability, T/C: stronger effect = lower value
How it was run: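 Multi-cell-type spheroids combined patient-derived tumor cells with HUVEC endothelial cells and human mesenchymal stem cells. Paired agents were dosed in half-log steps down from about clinical Cmax, or from 10 microM where Cmax was unknown.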
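Further: spheroids exposed to compounds for 7 days before readout.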

With `COc1c(OCCCN2CCOCC2)ccc2c3n(c(=NC(=O)c4cnc(N)nc4)nc12)CCN3` + CN1CCN(c2cc(C(=O)Nc3cc4cc(-c5cnn(C)c5)ccc4cn3)ccn2)CC1 the IC50 (curve of first compound, second compound 0.0316 µM) was 0.0951 µM, the IC50 (curve of first compound, second compound 0.1 µM) was 0.0217 µM and the IC50 (curve of first compound, second compound 0.316 µM) was less than 0.00316 µM. The IC50 (curve of first compound, second compound 1 µM) was less than 0.00316 µM, the IC50 (curve of first compound, second compound 3.16 µM) was less than 0.00316 µM and the IC50 (curve of first compound, second compound 10 µM) was less than 0.00316 µM. For the same compound, the viability, T/C (second compound 0.0316 µM, first compound 0.00316 µM) was 83.4%, the viability, T/C (second compound 0.0316 µM, first compound 0.01 µM) was 84.3% and the viability, T/C (second compound 0.0316 µM, first compound 0.0316 µM) was 77.2%. The viability, T/C (second compound 0.0316 µM, first compound 0.1 µM) was 46.6%, the viability, T/C (second compound 0.0316 µM, first compound 0.316 µM) was 21.7% and the viability, T/C (second compound 0.0316 µM, first compound 1 µM) was 6.87%. It also gave a viability, T/C (second compound 0.1 µM, first compound 0.00316 µM) of 65.2%, a viability, T/C (second compound 0.1 µM, first compound 0.01 µM) of 63.8% and a viability, T/C (second compound 0.1 µM, first compound 0.0316 µM) of 43.4%. For the same compound, the viability, T/C (second compound 0.1 µM, first compound 0.1 µM) was 18.1%, the viability, T/C (second compound 0.1 µM, first compound 0.316 µM) was 9.33% and the viability, T/C (second compound 0.1 µM, first compound 1 µM) was 4.74%. It also gave a viability, T/C (second compound 0.316 µM, first compound 0.00316 µM) of 1.28%, a viability, T/C (second compound 0.316 µM, first compound 0.01 µM) of 0.96% and a viability, T/C (second compound 0.316 µM, first compound 0.0316 µM) of 1.21%. The viability, T/C (second compound 0.316 µM, first compound 0.1 µM) was 1.68%, the viability, T/C (second compound 0.316 µM, first compound 0.316 µM) was 0.41% and the viability, T/C (second compound 0.316 µM, first compound 1 µM) was 0.17%. The viability, T/C (second compound 1 µM, first compound 0.00316 µM) was 0.15%, the viability, T/C (second compound 1 µM, first compound 0.01 µM) was 0.11% and the viability, T/C (second compound 1 µM, first compound 0.0316 µM) was 0.55%. It also gave a viability, T/C (second compound 1 µM, first compound 0.1 µM) of 0.06%, a viability, T/C (second compound 1 µM, first compound 0.316 µM) of 1.84% and a viability, T/C (second compound 1 µM, first compound 1 µM) of 1.26%. The viability, T/C (second compound 3.16 µM, first compound 0.00316 µM) was 0.21%, the viability, T/C (second compound 3.16 µM, first compound 0.01 µM) was 0.99% and the viability, T/C (second compound 3.16 µM, first compound 0.0316 µM) was 2.18%. It also gave a viability, T/C (second compound 3.16 µM, first compound 0.1 µM) of 0.08%, a viability, T/C (second compound 3.16 µM, first compound 0.316 µM) of 1.65% and a viability, T/C (second compound 3.16 µM, first compound 1 µM) of 0.11%. For the same compound, the viability, T/C (second compound 10 µM, first compound 0.00316 µM) was 0.1%, the viability, T/C (second compound 10 µM, first compound 0.01 µM) was 1.86% and the viability, T/C (second compound 10 µM, first compound 0.0316 µM) was 0.15%. The viability, T/C (second compound 10 µM, first compound 0.1 µM) was 0.42%, the viability, T/C (second compound 10 µM, first compound 0.316 µM) was 0.43% and the viability, T/C (second compound 10 µM, first compound 1 µM) was 0.62%.
In the case of `CC(=O)O[C@H]1C(=O)[C@@]2(C)[C@H]([C@H](OC(=O)c3ccccc3)[C@]3(O)C[C@H](OC(=O)[C@H](O)[C@@H](NC(=O)c4ccccc4)c4ccccc4)C(C)=C1C3(C)C)[C@]1(OC(C)=O)CO[C@@H]1C[C@@H]2O`, the viability, T/C (compound 0.0316 µM) is reported as 5.98% and 7.51%, the viability, T/C (compound 0.1 µM) is reported as 6.42% and 5.84% and the viability, T/C (compound 0.316 µM) is reported as 4.95% and 6.85%. For the same compound, the viability, T/C (compound 1 µM) was 5.57% and 6.35%, the viability, T/C (compound 3.16 µM) was 7.38% and 11.4% and the viability, T/C (compound 10 µM) was 16% and 15.4%. It also gave an IC50 (curve of compound) of less than 0.0316 µM.
